Legend:
[1] = tested on: CCL17 secretion in peripheral human whole blood; test: Human Whole Blood (HWB) CCL17 TR-FRET Assay (IL-13 stimulated CCL17 secretion); assay type: cell-based; details: Homo sapiens, 48 h, human whole blood, IL-13 stimulated
Method in brief: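 Measured here: CCL17 in serum by TR-FRET (665/615 nm) after overnight (16 h) room-temperature detection. The blood, heparinized and compound-treated for 2 h, received IL-13 at 10 ng/mL final and was cultured 48 h at 37 °C.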

STAT6 = molecular target: T1, STAT6 (Homo sapiens, UniProt P42226); test: STAT6 Reporter Luciferase Assay (IL-13 stimulated HaCaT keratinocyte NanoLuc reporter cells); assay type: cell-based; details: IL-13 stimulated HaCaT STAT6 NanoLuc reporter cells; read-out: Reporter EC50
T1 construct: stably transfected HaCaT keratinocyte cell line, which expresses NanoLuc luciferase reporter gene under the transcriptional control of the STAT6 responsive promoter; endogenous in cells; host or cells: HaCaT keratinocyte reporter cell line (stably transfected with a NanoLuc reporter)
T1 sequence (P42226 1-847): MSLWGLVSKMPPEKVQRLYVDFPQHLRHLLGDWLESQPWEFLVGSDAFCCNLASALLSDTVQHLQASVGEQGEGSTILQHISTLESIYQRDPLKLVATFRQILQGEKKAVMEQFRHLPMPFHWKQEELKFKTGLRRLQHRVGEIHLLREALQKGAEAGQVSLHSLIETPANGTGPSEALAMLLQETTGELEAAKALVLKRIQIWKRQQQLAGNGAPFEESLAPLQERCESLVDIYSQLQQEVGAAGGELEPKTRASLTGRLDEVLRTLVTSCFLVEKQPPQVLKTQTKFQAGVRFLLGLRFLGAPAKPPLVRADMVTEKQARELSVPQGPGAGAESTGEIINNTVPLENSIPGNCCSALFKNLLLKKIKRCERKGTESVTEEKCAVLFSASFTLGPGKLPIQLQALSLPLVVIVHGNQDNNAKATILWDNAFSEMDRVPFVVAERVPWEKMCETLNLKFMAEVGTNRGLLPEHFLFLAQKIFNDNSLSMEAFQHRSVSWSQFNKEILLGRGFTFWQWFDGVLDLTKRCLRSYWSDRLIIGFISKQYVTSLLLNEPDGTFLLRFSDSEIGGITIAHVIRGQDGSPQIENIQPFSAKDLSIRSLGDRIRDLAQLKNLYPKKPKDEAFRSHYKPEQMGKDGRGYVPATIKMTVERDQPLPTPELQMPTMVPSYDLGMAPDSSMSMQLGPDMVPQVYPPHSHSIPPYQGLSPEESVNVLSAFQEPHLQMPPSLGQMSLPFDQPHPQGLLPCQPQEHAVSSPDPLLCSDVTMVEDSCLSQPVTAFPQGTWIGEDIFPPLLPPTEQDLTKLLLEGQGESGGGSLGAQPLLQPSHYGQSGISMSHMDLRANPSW
Method in brief: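 HaCaT IL-13Ra2-promoter NanoLuc reporter; cpd 2 h 37 °C in DMEM/2% HI FBS; IL-13 0.12 nM final, 4 h; Nano-Glo luminescence.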

IC50 [1] [nM] | EC50 (STAT6) [nM] | SMILES
16 | 4 | CNC(=O)c1ccc(CNC(=O)c2nn(C(C)C)c3c2CN(c2ncc(C(=O)N4Cc5cccnc5C4)cn2)C[C@@H]3C)cc1 [Example 496, (S)-5-(5-(6,7-dihydro-5H-pyrrolo[3,4-b]pyridine-6-carbonyl)pyrimidin-2-yl)-1-isopropyl-7-methyl-N-(4-(methylcarbamoyl)benzyl)-4,5,6,7-tetrahydro-1H-pyrazolo[4,3-c]pyridine-3-carboxamide]
16 | 1 | CCOC(=O)Nc1ccc(CNC(=O)c2nn(C(C)C)c3c2CN(c2ccc(C(=O)N(C)C)cn2)C[C@@H]3C)cc1 [Example 497, ethyl (S)-(4-((5-(5-(dimethylcarbamoyl)pyridin-2-yl)-1-isopropyl-7-methyl-4,5,6,7-tetrahydro-1H-pyrazolo[4,3-c]pyridine-3-carboxamido)methyl)phenyl)carbamate]
> 21200 | 874 | CC(C)n1nc(C(=O)NCc2ccc(NC(=O)N(C)C)cc2)c2c1[C@@H](C)CN(c1ccc(C(=O)O)cn1)C2 [Example 504, (S)-6-(3-((4-(3,3-dimethylureido)benzyl)carbamoyl)-1-isopropyl-7-methyl-1,4,6,7-tetrahydro-5H-pyrazolo[4,3-c]pyridin-5-yl)nicotinic acid]
5 | 1 | CC(C)n1nc(C(=O)NCc2ccc(NC(N)=O)cc2)c2c1[C@@H](C)CN(c1ccc(-c3nccn3C)cn1)C2 [Example 516, (S)-1-isopropyl-7-methyl-5-(5-(1-methyl-1H-imidazol-2-yl)pyridin-2-yl)-N-(4-ureidobenzyl)-4,5,6,7-tetrahydro-1H-pyrazolo[4,3-c]pyridine-3-carboxamide]
33 | 9 | CC(C)n1nc(C(=O)NCc2ccc(C(N)=O)cc2)c2c1[C@@H](C)CN(c1ccc(N3CCOC3=O)cn1)C2 [Example 517, (S)-N-(4-carbamoylbenzyl)-1-isopropyl-7-methyl-5-(5-(2-oxooxazolidin-3-yl)pyridin-2-yl)-4,5,6,7-tetrahydro-1H-pyrazolo[4,3-c]pyridine-3-carboxamide]
71 | 2 | Cc1c[nH]c(-c2ccc(CNC(=O)c3nn(C(C)C)c4c3CN(c3ccc(N5CCOC5=O)cn3)C[C@@H]4C)cc2)n1 [Example 518, (S)-1-isopropyl-7-methyl-N-(4-(4-methyl-1H-imidazol-2-yl)benzyl)-5-(5-(2-oxooxazolidin-3-yl)pyridin-2-yl)-4,5,6,7-tetrahydro-1H-pyrazolo[4,3-c]pyridine-3-carboxamide]
219 | 8 | Cc1c[nH]c(-c2ccc(CNC(=O)c3nn(C(C)C)c4c3CN(c3ncc(N5CCOC5=O)cn3)C[C@@H]4C)cc2)n1 [Example 519, (S)-1-isopropyl-7-methyl-N-(4-(4-methyl-1H-imidazol-2-yl)benzyl)-5-(5-(2-oxooxazolidin-3-yl)pyrimidin-2-yl)-4,5,6,7-tetrahydro-1H-pyrazolo[4,3-c]pyridine-3-carboxamide]
22 | 1 | CNC(=O)Nc1ccc(CNC(=O)c2nn(C(C)C)c3c2CN(c2ccc(N4CCOC4=O)cn2)C[C@@H]3C)cc1 [Example 520, (S)-1-isopropyl-7-methyl-N-(4-(3-methylureido)benzyl)-5-(5-(2-oxooxazolidin-3-yl)pyridin-2-yl)-4,5,6,7-tetrahydro-1H-pyrazolo[4,3-c]pyridine-3-carboxamide]

The next lines start with the compound.

SMILES | IC50 [1] [nM] | EC50 (STAT6) [nM]
CC(C)n1nc(C(=O)NCc2ccc(NC(=O)NCc3ccc(NC(=O)N(C)C)cc3)cc2)c2c1[C@@H](C)CN(c1ncc(C(=O)N(C)C)cn1)C2 [Example 492, (S)-5-(5-(dimethylcarbamoyl)pyrimidin-2-yl)-N-(4-(3-(4-(3,3-dimethylureido)benzyl)ureido)benzyl)-1-isopropyl-7-methyl-4,5,6,7-tetrahydro-1H-pyrazolo[4,3-c]pyridine-3-carboxamide] | 4 | 0.5
CCn1nc(C(=O)NCc2ccc(NC(=O)N(C)C)cc2)c2c1[C@@H](C)CN(c1ncc(C(=O)N3Cc4cccnc4C3)cn1)C2 [Example 495, (S)-5-(5-(6,7-dihydro-5H-pyrrolo[3,4-b]pyridine-6-carbonyl)pyrimidin-2-yl)-N-(4-(3,3-dimethylureido)benzyl)-1-ethyl-7-methyl-4,5,6,7-tetrahydro-1H-pyrazolo[4,3-c]pyridine-3-carboxamide] | 34 | 1
CC(C)n1nc(C(=O)NCc2ccc(NC(=O)N(C)C)cc2)c2c1[C@@H](C)CN(c1ncc(C(=O)O)cn1)C2 [Example 498, (S)-2-(3-((4-(3,3-Dimethylureido)benzyl)carbamoyl)-1-isopropyl-7-methyl-1,4,6,7-tetrahydro-5H-pyrazolo[4,3-c]pyridin-5-yl)pyrimidine-5-carboxylic acid] | 3440 | 133
CC(C)n1nc(C(=O)NCc2ccc(NC(=O)NCc3ccc(NC(=O)N(C)C)cc3)cc2)c2c1[C@@H](C)CN(c1ccc(C(=O)N(C)C)cn1)C2 [Example 499, (S)-5-(5-(dimethylcarbamoyl)pyridin-2-yl)-N-(4-(3-(4-(3,3-dimethylureido)benzyl)ureido)benzyl)-1-isopropyl-7-methyl-4,5,6,7-tetrahydro-1H-pyrazolo[4,3-c]pyridine-3-carboxamide] | 6 | 0.3
CC(C)n1nc(C(=O)NCc2ccc(NC(=O)N(C)C)cc2)c2c1[C@@H](C)CN(c1ncc(C(=O)NCc3ccc(NC(=O)N(C)C)cc3)cn1)C2 [Example 500, (S)-N-(4-(3,3-dimethylureido)benzyl)-5-(5-((4-(3,3-dimethylureido)benzyl)carbamoyl)pyrimidin-2-yl)-1-isopropyl-7-methyl-4,5,6,7-tetrahydro-1H-pyrazolo[4,3-c]pyridine-3-carboxamide] | 104 | 11
CC(C)n1nc(C(=O)NCc2ccc(NC(=O)N(C)C)cc2)c2c1[C@@H](C)CN(c1ccc(C(=O)NCc3ccc(NC(=O)N(C)C)cc3)cn1)C2 [Example 501, (S)-N-(4-(3,3-dimethylureido)benzyl)-5-(5-((4-(3,3-dimethylureido)benzyl)carbamoyl)pyridin-2-yl)-1-isopropyl-7-methyl-4,5,6,7-tetrahydro-1H-pyrazolo[4,3-c]pyridine-3-carboxamide] | 50 | 7
C[C@H]1CN(c2ncc(-c3nccn3C)cn2)Cc2c(C(=O)NCc3ccc(NC(=O)N(C)C)cc3)nn(C)c21 [Example 502, (S)-N-(4-(3,3-dimethylureido)benzyl)-1,7-dimethyl-5-(5-(1-methyl-1H-imidazol-2-yl)pyrimidin-2-yl)-4,5,6,7-tetrahydro-1H-pyrazolo[4,3-c]pyridine-3-carboxamide] | 7550 | 813
CCOC(=O)Nc1ccc(CNC(=O)c2nn(C(C)C)c3c2CN(c2ncc(C(=O)N(C)C)cn2)C[C@@H]3C)cc1 [Example 503, ethyl (S)-(4-((5-(5-(dimethylcarbamoyl)pyrimidin-2-yl)-1-isopropyl-7-methyl-4,5,6,7-tetrahydro-1H-pyrazolo[4,3-c]pyridine-3-carboxamido)methyl)phenyl)carbamate] | 13 | 1
CCn1nc(C(=O)NCc2ccc(NC(=O)N(C)C)cc2)c2c1CCN(c1ccc(C(=O)N(C)C)cn1)[C@H]2C [Example 512, (S)-5-(5-(dimethylcarbamoyl)pyridin-2-yl)-N-(4-(3,3-dimethylureido)benzyl)-1-ethyl-4-methyl-4,5,6,7-tetrahydro-1H-pyrazolo[4,3-c]pyridine-3-carboxamide] | 2510 | 240
CCn1nc(C(=O)NCc2ccc(NC(=O)N(C)C)cc2)c2c1CCN(c1ccc(C(=O)N(C)C)cn1)[C@@H]2C [Example 513, (R)-5-(5-(dimethylcarbamoyl)pyridin-2-yl)-N-(4-(3,3-dimethylureido)benzyl)-1-ethyl-4-methyl-4,5,6,7-tetrahydro-1H-pyrazolo[4,3-c]pyridine-3-carboxamide] | 18 | 3

Reference: patent publication US20250320213A1, “Nitrogen-Containing Heterocyclic Compounds” (Pfizer Inc., priority 2024, published 2025)
